Drawing on patent US7618968B2, “Aryl triazines as LPAAT-β inhibitors and uses thereof” (Cell Therapeutics, Inc., priority 2001, dated 2009), this text covers IC50 for 29 compounds.

In this assay the target is T1, LPAAT-β (Homo sapiens, UniProt O15120).
T1 construct: the full-length human LPAAT-β cDNA was amplified by PCR; poly-histidine tag (from pFastBac HTc vector) (N); made in house; host or cells: Sf9 insect cells (baculovirus); membrane fraction used
T1 sequence (O15120 24-278): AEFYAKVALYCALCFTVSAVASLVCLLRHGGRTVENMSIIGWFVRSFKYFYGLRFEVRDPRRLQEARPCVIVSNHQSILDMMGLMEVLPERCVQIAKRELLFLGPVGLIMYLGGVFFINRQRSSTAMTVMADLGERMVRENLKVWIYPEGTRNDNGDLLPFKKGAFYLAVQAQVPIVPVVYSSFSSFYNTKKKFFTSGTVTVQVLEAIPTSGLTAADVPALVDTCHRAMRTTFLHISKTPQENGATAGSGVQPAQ
The assay is described as follows: LPAAT-β cell-free assay (colorimetric primary screen, radiometric/fluorescent TLC secondary assay). The note with it: Sf9 cell membrane overexpressing LPAAT-β. The format is biochemical. An excerpt: A. Production of Recombinant LPAAT-β for Assays
For the construction of Baculovirus expression vectors, the full-length human LPAAT-β cDNA was amplified by PCR from the DNA template pCE9.LPAAT-β (West et al., DNA Cell Biol. 16:691-701 (1997)) using the primers 5′-[…] […] […] […]-3′ (olpb1F; SEQ ID NO:1) and 5′-[…] […] […]-3′ (olpb1R; SEQ ID NO:2). The ˜870 bp fragment generated was reamplified by PCR using the primers 5′[…] […] […] […] ATC-3′ (olpb2F; SEQ ID NO:3) and 5′-[…] […] […]-3′ (olpb1R; SEQ ID NO:2). The ˜890 bp fragment generated was then cleaved with Sal I and Xba I for insertion into pFastBac™ HTc vector (Life Technologies, Gaithersberg, Md.) between the Sal I and Xba I sites for the generation of the plasmid pFB.LPAAT-β. This plasmid was then transformed into E. coli DH10Bac™ (Life Technologies, Gaithersberg, Md.) for the generation of recombinant Bacmid DNA for transfection in HighFive (Invitrogen, San Diego, Calif.) or SF9 insect cells for the production of recombinant Baculovirus stocks using the protocol described in the Bac-to-Bac® Baculovirus Expression System (Life Technologies, Gaithersberg, Md.), a eukaryotic expression system for generating recombinant baculovirus through site-specific transposition in E. coli. Viral stocks harvested from the transfected cells can then be used to infect fresh insect cells for the subsequence expression of LPAAT-β fusion protein with a poly-histidine tag and a myc-epitope near its N-terminus. The membrane fraction from these Sf9 cells would be the source of LPAAT enzyme.
B. Preparation of Cell Membranes from Sf9 Cells
For the preparation of membranes from Sf9 Cells, all steps are performed on ice or at 4° C. Sf9 cell pellets (˜10^8 cells) were thawed and resuspended in 1-2 ml of buffer A (20 mM Hepes, pH 7.5, 1 mM DTT, 1 mM EDTA, 20% w/v glycerol, 1 mM Benzamidine, 1 μg/ml soybean trypsin inhibitor (SBTI), 1 μg/ml pepstatin A) w/o DTT but with 1 mM Pefabloc. The cells were lysed by sonication using a Branson Sonifier at output=2, duty cycle=2, 10 pulses each at 10s. with the tip of small sonicator probe submerged but not touching the walls. DTT was then added to 1 mM from a 1 M stock. The samples were centrifuged at 1500 rpm for 5 min. The low speed supernatant was saved and centrifuged (TLA 100.3 rotor, polycarbonate tubes, 2 ml/tube or 1.5 ml/tube minimum) at 100000×g for 1 hr. The high speed pellet was resuspend in Buffer A with a probe sonicator (10 pulses @ output #2 and duty cycle 20%) as a source of LPAAT enzyme.
C. Assay of LPAAT-β Activity
LPAAT-β catalyzes the transfer of an acyl group from a donor such as acyl-CoA to LPA. The transfer of the acyl group from acyl-CoA to LPA leads to the release of free CoA, which can be reacted with the thiol reagent, 5,5′-dithiobis(2-nitrobenzoic acid) (DTNB). The reaction between DTNB and the free sulfhydryl group from CoA generates a yellow-colored product, 3-carboxylato-4-nitrothiophenolate (CNP), that absorbs at 413 nm. LPAAT-β derived from Sf9 cell membrane overexpressing LPAAT-β were resuspended in HEPES saline buffer (20 mM HEPES pH 7.5, 150 mM NaCl), 1 mg/ml BSA and 72 μl aliquots were distributed into 96-well microtiter plates. 8 μl of compound of interest at 200 μM dissolved in 100% DMSO was added into each well. 20 μl of 1 mM 18:1-CoA and 1 mM sn-1-18:1 lysoPA was then added to each well to initiate the reaction and allowed to run at room temperature for 25 min. 100 μl of 1 mM DTNB in 100% ethanol was then added to each well to quench the reaction and for color development. The absorbance at 405 nm, measured using a spectrophotometer plate reader, is proportional to the activity of LPAAT-β in the sample. This colorimetric assay was used for the high throughput screening of LPAAT inhibitors.

`COCc1ccc(Nc2nc(N)nc(-c3cc(Cl)ccc3C)n2)cc1` [Example 78, 6-(5-Chloro-2-methyl-phenyl)-N-(4-methoxy-methyl-phenyl)-[1,3,5]triazine-2,4-diamine] came in with an IC50 of 640 nM.

In turn, `Cc1ccc(Cl)cc1-c1nc(N)nc(Nc2ccc(COC(=O)[C@H](C)N)cc2)n1` [Example 77, 2-Amino-propionic acid 4-[4-amino-6-(5-chloro-2-methyl-phenyl)-[1,3,5]-triazin-2-ylamino]-benzyl ester] had an IC50 of 1300 nM.

`CCOc1ccc(Cl)cc1-c1nc(N)nc(Nc2ccc([N+](=O)[O-])cc2)n1` [Example 54, 6-(5-Chloro-2-ethoxyphenyl)-N-(4-nitrophenyl)-[1,3,5]triazine-2,4-diamine] displayed an IC50 of 120 nM.

In turn, `CNc1ccc(Cl)cc1-c1nc(N)nc(Nc2ccc(Cl)cc2)n1` [Example 44, 6-(5-Chloro-2-methylaminophenyl)-N-(4-chlorophenyl)-[1,3,5]triazine-2,4-diamine] showed an IC50 of 1500 nM. Compared with the last compound, the IC50 is about 12-fold higher.

Turning to `Cc1ccc(Cl)cc1-c1nc(N)nc(Nc2ccc(Cl)cc2)n1` [Example 9, 6-(5-Chloro-2-methylphenyl)-N-(4-Chlorophenyl)-[1,3,5]triazine-2,4-diamine], the IC50 is 55 nM.

Consider `Nc1nc(Nc2ccc(Cl)cc2)nc(-c2cc(Cl)ccc2Br)n1` [Example 80, 6-(2-Bromo-5-chloro-phenyl)-N-(4-chloro-phenyl)-[1,3,5]triazine-2,4-diamine], for which 140 nM corresponded to half-maximal inhibition (IC50).

As to `Cc1ccc(Cl)cc1-c1nc(N)nc(Nc2ccc(COC(=O)CN)cc2)n1` [Example 71, Amino-acetic acid 4-[4-amino-6-(5-chloro-2-methyl-phenyl)-[1,3,5]triazin-2ylamino]-benzyl ester], the midpoint of inhibition, the IC50, lay at 480 nM.

In the case of `Nc1nc(Nc2ccc(Cl)cc2)nc(-c2cc(Br)ccc2Cl)n1` [Example 45, 6-(5-Bromo-2-chloro-phenyl)-N-(4-chloro-phenyl)-[1,3,5]triazine-2,4-diamine], half-maximal inhibition (IC50) was put at 40 nM. This IC50 is about 12-fold lower than that of the compound before.

Consider `Cc1ccc(Cl)cc1-c1nc(N)nc(Nc2ccc(Br)cc2)n1` [Example 11, N-2-(4-Bromophenyl)-6-(5-chloro-2-methylphenyl)-[1,3,5]triazine-2,4-diamine], for which half-maximal inhibition (IC50) was put at 60 nM.

In turn, `Nc1nc(Nc2ccc3cn[nH]c3c2)nc(-c2cc(Cl)ccc2Cl)n1` [Example 48, 6-(2,5-Dichloro-phenyl)-N-(1H-indazol-6-yl)-[1,3,5]triazine-2,4-diamine] registered an IC50 of 110 nM.

In the case of `CNc1nc(Nc2ccc(CO)cc2)nc(-c2cc(Cl)ccc2C)n1` [Example 74, {4-[4-(5-Chloro-2-methyl-phenyl)-6-methylamino-[1,3,5]-triazin-2-ylamino]-phenyl}-methanol], the IC50 was determined as 680 nM.

`Cc1ccc(Cl)cc1-c1nc(N)nc(Nc2ccc(C=O)cc2)n1` [Example 87, 4-[4-Amino-6-(5-chloro-2-methyl-phenyl)-[1,3,5]triazin-2-ylamino]-benzaldehyde] came in with an IC50 of 110 nM.

`Cc1ccc(Cl)cc1-c1nc(N)nc(Nc2ccc(COC(=O)C[C@H](N)C(=O)O)cc2)n1` [Example 73, (S)-2-Amino-succinic acid 4-{4-[4-amino-6-(5-chloro-2-methyl-phenyl)-[1,3,5]triazin-2-ylamino]-benzyl}ester] showed an IC50 of 2100 nM.

As to `CCCOc1ccc(Cl)cc1-c1nc(N)nc(Nc2ccc(Cl)cc2)n1` [Example 50, N-(4-Chloro-phenyl)-6-(5-chloro-2-propoxy-phenyl)-[1,3,5]triazine-2,4-diamine], the IC50 is 200 nM.

Consider `Cc1ccc(Cl)cc1-c1nc(Cl)nc(Nc2ccc(Br)cc2)n1` [Example 20, (4-Bromo-phenyl)-[4-chloro-6-(5-chloro-2-methyl-phenyl)-[1,3,5]triazin-2-yl]-amine], for which the IC50 was found to be 10 nM.

Compound `COc1ccc(Cl)cc1-c1nc(N)nc(Nc2ccc(Cl)c(Cl)c2)n1` [Example 8, 6-(5-Chloro-2-methoxyphenyl)-N-(3,4-dichlorophenyl)-[1,3,5]triazine-2,4-diamine] gave an IC50 of 140 nM.

Compound `Nc1nc(Nc2ccc(Cl)cc2)nc(-c2cc(Cl)ccc2F)n1` [Example 85, 6-(5-Chloro-2-fluoro-phenyl)-N-(4-chloro-phenyl)-[1,3,5]triazine-2,4-diamine] returned an IC50 of 70 nM. This IC50 is about 2-fold lower than that of the compound before.

For the compound `COCCOc1ccc(Cl)cc1-c1nc(N)nc(Nc2ccc(Cl)cc2)n1` [Example 65, 6-[5-Chloro-2-(2-methoxy-ethoxy)-phenyl]-N-(4-chloro-phenyl) [1,3,5]triazine-2,4-diamine], the midpoint of inhibition, the IC50, lay at 600 nM.

Take `Cc1ccc(Cl)cc1-c1nc(C#N)nc(Nc2ccc(Br)cc2)n1` [Example 28]: the IC50 came out at 420 nM.

Take `Cc1ccc(Nc2nc(N)nc(-c3cc(Cl)ccc3Cl)n2)cc1` [Example 49, 6-(2,5-Dichloro-phenyl)-N-p-tolyl-[1,3,5]triazine-2,4-diamine]: the IC50 was found to be 210 nM.

In turn, `Nc1nc(Nc2ccc(CO)cc2)nc(-c2cc(Cl)ccc2Cl)n1` [Example 46, {4-[4-Amino-6-(2,5-dichloro-phenyl)-[1,3,5]triazin-2-ylamino]-phenyl}-methanol] registered an IC50 of 440 nM.

Take `Nc1nc(Nc2ccc3c(c2)OCO3)nc(-c2cc(Cl)ccc2Cl)n1` [Example 82, N-Benzo[1.3]dioxol-5-yl-6-(2,5-dichloro-phenyl)-[1,3,5]triazine-2,4-diamine]: the midpoint of inhibition, the IC50, lay at 300 nM.

`N#Cc1ccc(Nc2nc(N)nc(-c3cc(Cl)ccc3Cl)n2)cc1` [Example 89, 4-[4-Amino-6-(2,5-dichlorophenyl)-[1,3,5]triazin-2-ylamino]-benzonitrile] had an IC50 of 100 nM. This IC50 is about 3-fold lower than that of the compound before.

In the case of `COc1ccc(Cl)cc1-c1nc(N)nc(Nc2ccc(F)cc2)n1` [Example 15, 6-(5-Chloro-2-methoxyphenyl)-N-(4-fluorophenyl)-[1,3,5]triazine-2,4-diamine], the IC50 came to 430 nM.

The compound `Cc1ccc(Cl)cc1-c1nc(Nc2ccc(Cl)cc2)nc(N2CCCCC2)n1` [Example 31] returned an IC50 of 6000 nM.

The compound `Cc1ccc(Cl)cc1-c1nc(N)nc(Nc2ccc(COC(=O)CC[C@H](N)C(=O)O)cc2)n1` [Example 63, (S)-2-Amino-pentanedioic acid 5-{4-[4-amino-6-(5-chloro-2-methyl-phenyl)-[1,3,5]triazin-2-ylamino]-benzyl}ester] yielded a concentration for half-maximal inhibition (IC50) of 3100 nM.

Compound `Cc1ccc(C)c(-c2nc(N)nc(Nc3ccc(Cl)cc3)n2)c1` [Example 14, N-(4-chlorophenyl)-6-(2,5-dimethylphenyl)-[1,3,5]triazine-2,4-diamine] returned an IC50 of 250 nM.

As for `CCOc1ccc(Cl)cc1-c1nc(N)nc(Nc2ccc(C(O)CO)cc2)n1` (centres unmarked) [Example 69], it took 2600 nM to reach half-maximal inhibition (IC50).

In the case of `COc1ccc(Cl)cc1-c1nc(N)nc(Nc2ccc3c(c2)OCO3)n1` [Example 5, N-Benzo[1,3]dioxol-5-yl-6-(5-chloro-2-methoxyphenyl)-[1,3,5]triazine-2,4-diamine], the IC50 stood at 280 nM.

Broadly, the IC50 is the midpoint of a concentration-inhibition curve. A higher IC50 goes with weaker potency.
